Assays:
Format in all cases: cell-based, human
TNNT2 exon 5 = assay: RT-PCR alternative splicing assay, TNNT2 exon 5; conditions: DM1 myoblasts, 20 μM, 7 days; from 90% (FIG. 8C)
Experimental: (§1) Human myoblasts were obtained from the Myosix institute associated with the Association Frangaise contre les Myopathies (AFM). Five primary myoblast lines were obtained as controls, and one line from a DM1 patient with a 3.8 Kb CTG triplet amplification corresponding to approximately 1250 CTG repeats. The human myoblasts are cultivated in HAM-F10 media (SIGMA N6635) with 15% FBS, 1% chick embryo extract, and 390 ng/ml of dexamethasone. One day before adding compounds, 2×10^5 cells were plated in 100 mm plates (for CUGBP1 western blot or RT-PCR alternative splicing assay) or 2×10^4 cells/well are seeded in 12-well plates containing 12 mm round glass coverslips (for FISH to detect RNA foci). […]
(§2) For Western blots, CUGBP1 was detected with the 3B1-3D11 monoclonal antibody (mAb) (SIGMA C5112) and GAPDH was detected with the 6C5 mAb (Millipore MAB374). The enhanced chemiluminescence signal (ECL) was acquired and quantified with the ChemiDoc™ MP imaging system (Bio-Rad). […] The alternative splicing of the hnRNPA2/B1 transcript was detected with the primers 5′-[…]-3′ (SEQ ID NO:7) and 5′-[…]-3′ (SEQ ID NO:8). PCR was performed with Taq using standard conditions but the number of amplification cycles was optimized to be in the quantitative range for each gene. […]

SERCA1 exon 22 = assay: RT-PCR alternative splicing assay, SERCA1 exon 22; conditions: DM1 myoblasts, 20 μM, 7 days; WT 59%, DM1 less than 2% (FIG. 8B)
Experimental: as §1, §2

MBNL1 mRNA exon 7 = assay: RT-PCR alternative splicing assay, MBNL1 exon 7; conditions: DM1 myoblasts, 5 to 60 μM, 7 days (FIG. 12B)

`CCCN(CCC)S(=O)(=O)c1ccc(NS(=O)(=O)Cc2ccccc2)cc1` [Compound 15] was tested, and the “inclusion of foetal TNNT2 exon 5, of total transcripts” value (TNNT2 exon 5) was 76% and the “inclusion of SERCA1 exon 22, of total transcripts” value (SERCA1 exon 22) was 17%.
`CCCc1c(C(=O)N(Cc2ccccc2)Cc2cccs2)cnn1-c1ccccc1` [Compound 32] was tested, and the “dose-response effect on splicing of MBNL1 mRNA” value (MBNL1 mRNA exon 7) was “clear dose-response effect”.
